According to patent US11058781B2, “Diazacarbazole derivatives as tau-PET-ligands” (Hoffmann-La Roche Inc., priority 2013, dated 2021):

Columns and labels:
native tau aggregates = assay: TAU radioligand in-vitro displacement assay ([3H]T808 autoradiography on AD brain sections); format: binding; settings: human AD brain sections; radioligand [3H]T808 10 nM; 50 mM Tris pH 7.4, room temperature, 30 min
Method: This in vitro binding assay assesses the affinity of compounds for native tau aggregates. The compounds are co-incubated with the well-established tau specific radioligand [^3H]T808 and the compound's displacement potency of [^3H]T808 binding is determined by in vitro autoradiography using human Alzheimer's disease (AD) brain sections (see FIG. 2).
AD human brains are purchased from Banner Sun Health Research Institute (Sun City, Ariz., USA). Pathological diagnosis of AD is made according to standard NIA-Reagan Institute criteria based on neuropathological data. The radioligand [^3H]T808 was synthesized in-house ([^3H]-2-[4-(2-Fluoro-ethyl)-piperidin-1-yl]-benzo[4,5]imidazo[1,2-a]pyrimidine, radiochemical purity 99.0%). […] For the autoradiography FujiFilm Imaging Plates (BAS-IP TR 2025) are exposed to the sections and read with a FujiFilm IP reader (BAS-5000). […]
The signal intensity (Dens−PSL/mm2) in the region of interest (ROI) of the autoradiogram is quantified with the software MCID analysis (version 7.0, Imaging Research Inc.). The specific binding (SB) of [^3H]T808 binding in absence or in presence of a compound is calculated by subtracting the non-specific binding signal in the white matter, thus yielding SB[3H]T808 only and SBcompound. The % displacement by the various compounds is calculated as following: % displacement=100−(SBcompound/SB[3H]T808 only)*100. […]

tau aggregates = assay: Autoradiogram of the tritiated radioligand on a human cortical brain section (Braak V AD patient); format: binding; settings: radioligand concentration 3.2 nM, Braak V staged AD patient
Sequence of tau aggregates (P10636 623-708 limits assumed): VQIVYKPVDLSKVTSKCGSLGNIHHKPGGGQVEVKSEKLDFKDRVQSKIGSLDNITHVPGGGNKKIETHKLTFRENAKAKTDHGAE
Method: FIG. 1: Autoradiogram of ^3H-2-(6-fluoro-pyridin-3-yl)-9H-dipyrido[2,3-b;3′,4′-d]pyrrole.
Autoradiogram of ^3H-2-(6-fluoro-pyridin-3-yl)-9H-dipyrido[2,3-b;3′,4′-d]pyrrole incubated with a human cortical brain section obtained from a Braak V staged AD patient. The radioligand concentration was 3.2 nM.

With `Fc1ccc(-c2ccc3c(n2)[nH]c2ccncc23)cn1` [Example 1, 2-(6-Fluoro-pyridin-3-yl)-9H-dipyrido[2,3-b;3′,4′-d]pyrrole] as the molecule, how does the “% displacement of [^3H]T808 (10 nM)” value (native tau aggregates) read?
Its value is 43%.

How did the “staining pattern in autoradiogram” value (tau aggregates) turn out when “^3H-2-(6-Fluoro-pyridin-3-yl)-9H-dipyrido[2,3-b;3′,4′-d]pyrrole [Example 2]” was run?
The value was “punctate staining of tau aggregates in a layered distribution pattern”.
